According to patent publication US20240358692A1, “TREATMENT OF SCLERODERMA” (Aisa Pharma, Inc., priority 2023, published 2024):

Key:
participants with SSc-RP [1] = assay: SHAQ - Visual Analog Scale - Breathing Problems; type: in vivo, human
Text: The standard, validated, patient reported outcome measures tool for SSc patients, the Scleroderma Health Assessment Questionnaire (SHAQ), will be used to assess the participant qualify of life. Details are attached in the Appendix. The participant quality of life will be scored, and a disability index calculated for each questionnaire completed by the patient at Screening and each in-clinic visit. The absolute change in participant quality of life from baseline to the end of each dosing period will be calculated similar to frequency data as before.
(§1) The standard, validated, patient reported outcome measures tool for SSc patients, the SHAQ, was collected at the time points specified in the study schedules (FIG. 2 and FIGS. 4A and 4B) to assess the participant's quality of life. The SHAQ included a Raynaud's VAS that will also be reported separately.

participants with SSc-RP [2] = assay: SHAQ - Visual Analog Scale - Raynaud's; type: in vivo, human; parameters: SHAQ Visual Analogue Scale - Raynaud's, In-Clinic Visit (Day 12), Mean / SHAQ Visual Analogue Scale - Raynaud's, In-Clinic Visit (Day 12), Median / SHAQ Visual Analogue Scale - Raynaud's: In-Clinic Visit (Day 12), Median: scale not given here; conditions: for % change VAS Raynauds: SHAQ, mITT Part A
Text: The SHAQ includes a Raynaud's VAS, which will be reported at screening and each in-clinic visit. The absolute change in Raynaud-VAS, assessed by the participants response to the SHAQ question ‘In the past 7 days, how much have your Raynaud's interfered with your daily activities?’ at baseline and the end of each dosing period will be calculated similar to frequency data as before.
as §1

[3] = pooled Cilnidipine 20 mg and Cilnidipine 20 mg + Tadalafil 5 mg
[4] = pooled cilnidipine 10 mg and 20 mg arms (combination: + tadalafil 5 mg)
[5] = Any Cilnidipine (N = 17), Day 12, PP Population, Part A
[6] = Cilnidipine 20 mg (N = 4), Day 12, PP Population, Part A
[7] = Pooled Cilnidipine 10 mg and Cilnidipine 10 mg + Tadalafil 5 mg (N = 9), Day 12, PP Population, Part A
[8] = Pooled Cilnidipine 20 mg and Cilnidipine 20 mg + Tadalafil 5 mg (N = 7), Modified ITT Population - Part A
[9] = Pooled Cilnidipine (N = 8), Day 12, PP Population, Part A
[10] = cilnidipine 10 mg (combination: + tadalafil 5 mg)
[11] = cilnidipine 20 mg (combination: + tadalafil 5 mg)

SMILES: COCCOC(=O)C1=C(C)NC(C)=C(C(=O)OC/C=C/c2ccccc2)C1c1cccc([N+](=O)[O-])c1 (centres unmarked) [Cilnidipine]
- VAS Breathing Problems Percent Change from Baseline Max (participants with SSc-RP [1]; [3]): 600.0%
- VAS Breathing Problems Percent Change from Baseline Min (participants with SSc-RP [1]; [3]): −100.0%
- VAS Breathing Problems Percent Change from Baseline Q1 (participants with SSc-RP [1]; [3]): −75.00%
- VAS Breathing Problems Percent Change from Baseline Q3 (participants with SSc-RP [1]; [3]): 150.00%
- VAS Breathing Problems Change from Baseline Max (participants with SSc-RP [1]; [4]): 0.30
- VAS Breathing Problems Change from Baseline Median (participants with SSc-RP [1]; [4]): 0.000
- VAS Breathing Problems Change from Baseline Min (participants with SSc-RP [1]; [4]): −2.00
- VAS Breathing Problems Change from Baseline Q1 (participants with SSc-RP [1]; [4]): −1.200
- VAS Breathing Problems Change from Baseline Q3 (participants with SSc-RP [1]; [4]): 0.000
- VAS Breathing Problems Day 12 Max (participants with SSc-RP [1]; [4]): 6.30
- VAS Breathing Problems Day 12 Median (participants with SSc-RP [1]; [4]): 0.000
- VAS Breathing Problems Day 12 Min (participants with SSc-RP [1]; [4]): 0.00
- VAS Breathing Problems Day 12 Q1 (participants with SSc-RP [1]; [4]): 0.000
- VAS Breathing Problems Day 12 Q3 (participants with SSc-RP [1]; [4]): 0.500
- VAS Breathing Problems Percent Change from Baseline Max (participants with SSc-RP [1]; [4]): 150.0%
- VAS Breathing Problems Percent Change from Baseline Mean (participants with SSc-RP [1]; [4]): −8.17%
- VAS Breathing Problems Percent Change from Baseline Median (participants with SSc-RP [1]; [4]): −41.33%
- VAS Breathing Problems Percent Change from Baseline Min (participants with SSc-RP [1]; [4]): −100.0%
- VAS Breathing Problems Percent Change from Baseline Q1 (participants with SSc-RP [1]; [4]): −83.33%
- VAS Breathing Problems Percent Change from Baseline Q3 (participants with SSc-RP [1]; [4]): 67.00%
- SHAQ Visual Analogue Scale - Raynaud's, Change from Baseline, Mean (SD) (participants with SSc-RP [2]; [5]): −0.696 (1.3935)
- SHAQ Visual Analogue Scale - Raynaud's, Change from Baseline, Median (participants with SSc-RP [2]; [5]): −0.300
- SHAQ Visual Analogue Scale - Raynaud's, In-Clinic Visit (Day 12), Mean (SD) (participants with SSc-RP [2]; [5]): 2.022 (1.8357)
- SHAQ Visual Analogue Scale - Raynaud's, In-Clinic Visit (Day 12), Median (participants with SSc-RP [2]; [5]): 1.400
- SHAQ Visual Analogue Scale - Raynaud's, Percent Change from Baseline, Mean (SD) (participants with SSc-RP [2]; [5]): −20.44 (55.098) %
- SHAQ Visual Analogue Scale - Raynaud's, Percent Change from Baseline, Median (participants with SSc-RP [2]; [5]): −33.33%
- SHAQ Visual Analogue Scale - Raynaud's, Change from Baseline, Median (participants with SSc-RP [2]; Cilnidipine 10 mg (N = 4), Day 12, PP Population, Part A): 0.350
- SHAQ Visual Analogue Scale - Raynaud's, Change from Baseline, Mean (participants with SSc-RP [2]; [6]): −1.200
- SHAQ Visual Analogue Scale - Raynaud's, In-Clinic Visit (Day 12), Median (participants with SSc-RP [2]; [6]): 1.250
- % change VAS Raynauds (participants with SSc-RP [2]; Cilnidipine 20 mg (n = 3)): −49%
- SHAQ Visual Analogue Scale - Raynaud's, Percent Change from Baseline, Median (participants with SSc-RP [2]; Cilnidipine 20 mg, Day 12 vs Baseline, PP Population Part A, sensitivity analysis): −38.67%
- SHAQ Visual Analogue Scale - Raynaud's, Change from Baseline, Mean (participants with SSc-RP [2]; [7]): −0.414
- SHAQ Visual Analogue Scale - Raynaud's, Change from Baseline, Median (participants with SSc-RP [2]; [7]): −0.100
- SHAQ Visual Analogue Scale - Raynaud's, In-Clinic Visit (Day 12), Median (participants with SSc-RP [2]; [7]): 2.600
- SHAQ Visual Analogue Scale - Raynaud's, Percent Change from Baseline, Mean (participants with SSc-RP [2]; [7]): −9.97%
- SHAQ Visual Analogue Scale - Raynaud's, Percent Change from Baseline, Median (participants with SSc-RP [2]; [7]): −4.39%
- SHAQ Visual Analogue Scale - Raynaud's, Change from Baseline, Median (participants with SSc-RP [2]; Pooled Cilnidipine 20 mg and Cilnidipine 20 mg + Tadalafil 5 mg (N = 7), Day 12, Modified ITT Population - Part A): −0.300
- SHAQ Visual Analogue Scale - Raynaud's, In-Clinic Visit (Day 12), Mean (participants with SSc-RP [2]; [8]): 1.300
- SHAQ Visual Analogue Scale - Raynaud's, In-Clinic Visit (Day 12), Median (participants with SSc-RP [2]; [8]): 0.600
- SHAQ Visual Analogue Scale - Raynaud's, In-Clinic Visit (Day 12), Median (participants with SSc-RP [2]; Pooled Cilnidipine 20 mg and Cilnidipine 20 mg + Tadalafil 5 mg (N = 8), Day 12, PP Population, Part A): 0.850
- SHAQ Visual Analogue Scale - Raynaud's, Change from Baseline, Mean (SD) (participants with SSc-RP [2]; [9]): −0.438 (1.2094)
- SHAQ Visual Analogue Scale - Raynaud's, In-Clinic Visit (Day 12), Mean (participants with SSc-RP [2]; [9]): 1.900
- SHAQ Visual Analogue Scale - Raynaud's, In-Clinic Visit (Day 12), Mean (SD) (participants with SSc-RP [2]; [9]): 1.900 (1.6861)
- SHAQ Visual Analogue Scale - Raynaud's, Percent Change from Baseline, Mean (SD) (participants with SSc-RP [2]; [9]): −18.62 (75.571) %
- % change VAS Raynauds (participants with SSc-RP [2]; Pooled Cilnidipine (n = 7)): −17%
- SHAQ Visual Analogue Scale - Raynaud's: Change from Baseline, Median (participants with SSc-RP [2]; Sensitivity Analysis (diagnosis of SSc), Modified ITT, Part A, Day 12, Any Cilnidipine (N = 14)): −0.300
- SHAQ Visual Analogue Scale - Raynaud's: Percent Change from Baseline, Mean (participants with SSc-RP [2]; Sensitivity Analysis (diagnosis of SSc), Modified ITT, Part A, Day 12, Pooled Cilnidipine (N = 6)): −18.64%
- SHAQ Visual Analogue Scale - Raynaud's: In-Clinic Visit (Day 12), Median (participants with SSc-RP [2]; Sensitivity Analysis (diagnosis of SSc), Modified ITT, Part A, Day 12, arms Cilnidipine 10 mg, Tadalafil 5 mg, Cilnidipine 10 mg + Tadalafil 5 mg): 2.600
- SHAQ Visual Analogue Scale - Raynaud's: In-Clinic Visit (Day 12), Median (participants with SSc-RP [2]; Sensitivity Analysis (diagnosis of SSc), Modified ITT, Part A, Day 12, arms Cilnidipine 20 mg, Cilnidipine 20 mg + Tadalafil 5 mg): 1.100
- VAS Raynaud's Change from Baseline Max (participants with SSc-RP [2]; [10]): 1.50
- VAS Raynaud's Change from Baseline Median (participants with SSc-RP [2]; [10]): 0.350
- VAS Raynaud's Change from Baseline Min (participants with SSc-RP [2]; [10]): −0.90
- VAS Raynaud's Change from Baseline Q1 (participants with SSc-RP [2]; [10]): −0.500
- VAS Raynaud's Change from Baseline Q3 (participants with SSc-RP [2]; [10]): 1.150
- VAS Raynaud's Day 12 Max (participants with SSc-RP [2]; [10]): 4.30
- VAS Raynaud's Day 12 Median (participants with SSc-RP [2]; [10]): 1.700
- VAS Raynaud's Day 12 Min (participants with SSc-RP [2]; [10]): 0.00
- VAS Raynaud's Day 12 Q1 (participants with SSc-RP [2]; [10]): 0.400
- VAS Raynaud's Day 12 Q3 (participants with SSc-RP [2]; [10]): 3.450
- VAS Raynaud's Percent Change from Baseline Max (participants with SSc-RP [2]; [10]): 136.4%
- VAS Raynaud's Percent Change from Baseline Mean (participants with SSc-RP [2]; [10]): 11.36%
- VAS Raynaud's Percent Change from Baseline Median (participants with SSc-RP [2]; [10]): −2.27%
- VAS Raynaud's Percent Change from Baseline Min (participants with SSc-RP [2]; [10]): −100.0%
- VAS Raynaud's Percent Change from Baseline Q1 (participants with SSc-RP [2]; [10]): −100.00%
- VAS Raynaud's Change from Baseline Max (participants with SSc-RP [2]; [11]): −0.30
- VAS Raynaud's Change from Baseline Mean (participants with SSc-RP [2]; [11]): −1.267
- VAS Raynaud's Change from Baseline Median (participants with SSc-RP [2]; [11]): −1.100
- VAS Raynaud's Change from Baseline Min (participants with SSc-RP [2]; [11]): −2.40
- VAS Raynaud's Change from Baseline Q1 (participants with SSc-RP [2]; [11]): −2.400
- VAS Raynaud's Change from Baseline Q3 (participants with SSc-RP [2]; [11]): −0.300
- VAS Raynaud's Day 12 Max (participants with SSc-RP [2]; [11]): 1.40
- VAS Raynaud's Day 12 Median (participants with SSc-RP [2]; [11]): 1.100
- VAS Raynaud's Day 12 Min (participants with SSc-RP [2]; [11]): 0.60
- VAS Raynaud's Day 12 Q1 (participants with SSc-RP [2]; [11]): 0.600
- VAS Raynaud's Day 12 Q3 (participants with SSc-RP [2]; [11]): 1.400
- VAS Raynaud's Percent Change from Baseline Mean (participants with SSc-RP [2]; [11]): −48.63%
- VAS Raynaud's Percent Change from Baseline Median (participants with SSc-RP [2]; [11]): −44.00%
- VAS Raynaud's Percent Change from Baseline Min (participants with SSc-RP [2]; [11]): −68.6%
- VAS Raynaud's Percent Change from Baseline Q1 (participants with SSc-RP [2]; [11]): −68.57%
- VAS Raynaud's Percent Change from Baseline Q3 (participants with SSc-RP [2]; [11]): −33.33%
